Laboratory results: patent US6974822B2, “3-isoquinolinone derivatives as matrix metalloproteinase inhibitors” (Warner-Lambert Company LLC, priority 2002, dated 2005)

Molecular target: T1, human MMP-13 catalytic domain (hMMP-13CD) (Homo sapiens, UniProt P45452)
T1 construct: a human MMP-13 catalytic domain (“hMMP-13CD”)
Assay: Inhibition of MMP-13 catalytic domain (thiopeptolide substrate hydrolysis, IC50)
Assay type: biochemical
From the text: The assays measure the amount by which a test compound reduces the hydrolysis of a thiopeptolide substrate catalyzed by a matrix metalloproteinase enzyme. Such assays are described in detail by Ye et al., in Biochemistry, 1992;31(45):11231-11235, which is incorporated herein by reference. One such assay is described below in Biological Method 1.
Some of the particular methods described below use the catalytic domain of the MMP-13 enzyme, namely matrix metalloproteinase-13 catalytic domain (“MMP-13CD”), rather than the corresponding full-length enzyme, MMP-13. It has been shown previously by Ye Qi-Zhuang, Hupe D., and Johnson L. (Current Medicinal Chemistry, 1996;3:407-418) that inhibitor activity against a catalytic domain of an MMP is predictive of the inhibitor activity against the respective full-length MMP enzyme.
Thiopeptolide substrates show virtually no decomposition or hydrolysis at or below neutral pH in the absence of a matrix metalloproteinase enzyme. A typical thiopeptolide substrate commonly utilized for assays is Ac-Pro-Leu-Glythioester-Leu-Leu-Gly-OEt. […] The change in absorbance at 405 nm is monitored on a Thermo Max microplate reader (molecular Devices, Menlo Park, Calif.) at room temperature (22° C.). […]
Some representative compounds of Formula I have been evaluated for their ability to inhibit MMP-13. […]

Work on `O=C(O)c1ccc(Cn2ccc3ccc(C#CCn4ccnn4)cc3c2=O)cc1` [4-[1-oxo-7-(3-[1,2,3]triazol-1-ylprop-1-ynyl)-1H-isoquinolin-2-ylmethyl]benzoic acid] yielded an IC50 greater than 50 µM.
